Assay [1] deals with T1, human amylin receptor (hAmyR3) (Homo sapiens, UniProt O60896+P30988).
T1 construct: host or cells: BHK cells (Hollex-1 line: human calcitonin receptor (a) + CRE-Luc), further transfected with human RAMP3
Kind of assay: Human amylin receptor in vitro potency assay (CRE-luciferase reporter, BHK cells).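 Note: BHK cells expressing human calcitonin receptor plus RAMP3 (amylin-3 receptor) with a CRE-luciferase reporter, agonist activity read as luminescence from cAMP-driven transcription, 7-point serial dilutions.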 Type of assay: cell-based. (In general: In a reporter assay the amount or activity of a reporter protein is the signal.)

A further assay addresses T2, human GLP-1 receptor (Homo sapiens, UniProt P43220).
T2 construct: expressed in transfected cells; host or cells: BHK (Baby Hamster Kidney) cells, clone BHK 467-12A KZ-10, stably transfected, with CRE-luciferase reporter
Kind of assay: Human GLP-1 receptor in vitro potency assay (CRE-luciferase reporter, BHK cells). Type of assay: cell-based.

Setting [2] is: Table 4a, BHK hAmyR3/CRE-Luc cells, 3 hours, read-out: Human AmyR3 potency [EC50 (pM)].
The mark [3] stands for this setting: Table 4a, BHK cells expressing human GLP-1R, CRE-Luc, 3 hours, read-out: Human GLP-1R potency [EC50 (pM)].

Where two headings read alike, the source gives them in different places. Starred links: 1 amine or outer side, 2 acyl side, 3 side chain; linkers in the order of their positions; H or OH if unused. Non-standard residues stand in square brackets, D forms with d. Groups on a side chain read outwards from the residue. *: point of attachment. Decanoyl(10-(4-HOOC-PhO)) = O=C(O)c1ccc(OCCCCCCCCCC(=O)*)cc1; C18 diacid = O=C(O)CCCCCCCCCCCCCCCCC(=O)*; C16 diacid = O=C(O)CCCCCCCCCCCCCCC(=O)*; γGlu = O=C(O)[C@H](CCC(=O)[*:2])N[*:1]; AEEA = NCCOCCOCC(=O)O; Aib = CC(C)(N)C(=O)O

T2 sequence (P43220 24-463): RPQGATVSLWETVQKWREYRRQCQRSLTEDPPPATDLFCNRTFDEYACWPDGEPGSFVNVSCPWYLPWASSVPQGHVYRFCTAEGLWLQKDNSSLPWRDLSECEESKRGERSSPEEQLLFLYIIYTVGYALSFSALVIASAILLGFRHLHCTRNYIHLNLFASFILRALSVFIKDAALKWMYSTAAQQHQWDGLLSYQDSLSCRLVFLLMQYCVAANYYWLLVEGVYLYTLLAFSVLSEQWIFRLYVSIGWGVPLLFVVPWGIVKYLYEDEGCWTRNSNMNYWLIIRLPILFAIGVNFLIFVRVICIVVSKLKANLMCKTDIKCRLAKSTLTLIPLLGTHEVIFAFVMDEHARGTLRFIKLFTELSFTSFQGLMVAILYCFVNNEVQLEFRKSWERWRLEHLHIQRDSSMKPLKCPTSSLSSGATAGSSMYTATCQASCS
T1 sequence (P30988 25-474): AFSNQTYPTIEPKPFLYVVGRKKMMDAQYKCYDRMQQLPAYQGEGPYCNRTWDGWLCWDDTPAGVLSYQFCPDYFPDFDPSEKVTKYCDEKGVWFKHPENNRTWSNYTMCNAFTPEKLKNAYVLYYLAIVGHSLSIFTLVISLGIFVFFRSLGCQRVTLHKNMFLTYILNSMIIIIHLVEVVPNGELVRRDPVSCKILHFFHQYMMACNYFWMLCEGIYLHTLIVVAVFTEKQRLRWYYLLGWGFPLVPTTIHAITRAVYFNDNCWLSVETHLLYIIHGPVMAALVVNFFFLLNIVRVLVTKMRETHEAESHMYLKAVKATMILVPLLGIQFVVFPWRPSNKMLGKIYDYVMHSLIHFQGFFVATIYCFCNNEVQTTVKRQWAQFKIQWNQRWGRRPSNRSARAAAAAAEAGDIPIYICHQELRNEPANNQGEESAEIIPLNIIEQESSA
T1 sequence (O60896 24-148): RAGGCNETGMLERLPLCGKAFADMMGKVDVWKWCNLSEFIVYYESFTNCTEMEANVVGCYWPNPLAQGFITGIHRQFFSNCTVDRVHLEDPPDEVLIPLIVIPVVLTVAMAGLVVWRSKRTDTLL

What is called EC50 is the midpoint of the concentration-response curve. With `CC[C@H](C)[C@H](NC(=O)[C@H](Cc1ccccc1)NC(=O)[C@H](CCC(=O)O)NC(=O)[C@H](CCCCNC(=O)COCCOCCNC(=O)COCCOCCNC(=O)CC[C@H](NC(=O)CCCCCCCCCCCCCCCCC(=O)O)C(=O)O)NC(=O)[C@H](C)NC(=O)[C@H](C)NC(=O)[C@H](CCC(N)=O)NC(=O)CNC(=O)[C@H](CCC(=O)O)NC(=O)[C@H](CC(C)C)NC(=O)[C@H](Cc1ccc(O)cc1)NC(=O)[C@H](CO)NC(=O)[C@H](CO)NC(=O)[C@@H](NC(=O)[C@H](CC(=O)O)NC(=O)[C@H](CO)NC(=O)[C@@H](NC(=O)[C@H](Cc1ccccc1)NC(=O)[C@@H](NC(=O)CNC(=O)[C@H](CCC(=O)O)NC(=O)C(C)(C)NC(=O)[C@@H](N)Cc1c[nH]cn1)[C@@H](C)O)[C@@H](C)O)C(C)C)C(=O)N[C@@H](C)C(=O)N[C@@H](Cc1c[nH]c2ccccc12)C(=O)N[C@@H](CC(C)C)C(=O)N[C@H](C(=O)N[C@@H](CCCNC(=N)N)C(=O)NCC(=O)N[C@@H](CCCNC(=N)N)C(=O)NCC(=O)NCC(=O)N[C@@H](CCC(N)=O)C(=O)N[C@@H](CCC(=O)O)C(=O)N1CCC[C@H]1C(=O)NCC(=O)N[C@@H](CCC(N)=O)C(=O)N[C@@H](CCC(=O)O)C(=O)N1CCC[C@H]1C(=O)N[C@@H](CCCCNC(=O)COCCOCCNC(=O)COCCOCCNC(=O)CC[C@H](NC(=O)CCCCCCCCCCCCCCCCC(=O)O)C(=O)O)C(=O)N[C@@H](CCC(=O)O)C(=O)N[C@@H](C)C(=O)N[C@@H](CO)C(=O)N[C@@H](CCC(=O)O)C(=O)N[C@@H](CC(C)C)C(=O)N[C@@H](CO)C(=O)N[C@H](C(=O)N[C@@H](C)C(=O)N[C@@H](C)C(=O)N[C@@H](CC(C)C)C(=O)NCC(=O)N[C@@H](CCCNC(=N)N)C(=O)N[C@@H](CC(C)C)C(=O)N[C@@H](CO)C(=O)N[C@@H](C)C(=O)N[C@@H](CCC(=O)O)C(=O)N[C@@H](CC(C)C)C(=O)N[C@@H](Cc1c[nH]cn1)C(=O)N[C@@H](CCC(=O)O)C(=O)N[C@@H](CC(C)C)C(=O)N[C@@H](C)C(=O)N[C@H](C(=O)N[C@@H](CC(C)C)C(=O)N1CCC[C@H]1C(=O)N[C@@H](CCCNC(=N)N)C(=O)N[C@H](C(=O)N[C@@H](CCC(=O)O)C(=O)N[C@H](C(=O)NCC(=O)N[C@@H](CO)C(=O)NCC(=O)N[C@@H](CO)C(=O)N1CCC[C@H]1C(N)=O)[C@@H](C)O)[C@@H](C)O)[C@@H](C)O)[C@@H](C)O)C(C)C` [Compound 0071], the EC50 in assay [1] stood at 159 pM; on human GLP-1 receptor, 69.4 pM.

With “H-H[Aib]EGTFTSDVSSYLEEQAAREFIAWLVRGK([AEEA-AEEA-γGlu-C16 diacid])GGGGGEASELSTAALGRLSAELHELATLK([AEEA-AEEA-γGlu-C16 diacid])RTETGSGSP-NH2 [Compound 0284]”, the concentration for a half-maximal effect (EC50) in assay [1] (setting [2]) is 32.8 pM; on human GLP-1 receptor (setting [3]), 41.7 pM.

Consider “H-H[Aib]EGTFTSDVSSYLEGQAAK([AEEA-AEEA-γGlu-C18 diacid])EFIAWLVRGRGQAPGQEPEASELSTAALGRLSAELHELATLPRTETGSGSP-NH2 [Compound 0156]”, for which the EC50 (in assay [1] (setting [2]); on human GLP-1 receptor (setting [3])) was 22.6 pM in each case.

As for “H-H[Aib]EGTFTSDVSSYLEGQAAK([AEEA-AEEA-γGlu-C18 diacid])EFIAWLVRGRGGQEPGQEPEASELSTAALGRLSAELHELATLPRTETGSGSP-NH2 [Compound 0019]”, the EC50 in assay [1] (setting [2]) was 26.5 pM; at human GLP-1 receptor (setting [3]), 13.7 pM.

As for “H-H[Aib]EGTFTSDVSK([AEEA-AEEA-γGlu-C16 diacid])YLEEQAVREFIAK([AEEA-AEEA-γGlu-C16 diacid])LVRGRGGGEASELSTAALGRLSAELHELATLPRTETGSGSP-NH2 [Compound 0483]”, the figures for the EC50 (in assay [1] (setting [2]); at human GLP-1 receptor (setting [3])) were 36.8 pM and 33.7 pM, respectively.

“HWEGTFTSDVSSYLEEQAARK([AEEA-AEEA-γGlu-Decanoyl(10-(4-HOOC-PhO))])FIEWLVRGK([AEEA-AEEA-γGlu-Decanoyl(10-(4-HOOC-PhO))])GEGGGGGGGGGEASELSTAALGRLSAELHELATLPRTETGSGSP-NH2 [Compound 0101]”: the EC50 stood at 10.2 pM in assay [1] and 7.1 pM at human GLP-1 receptor.

As for “H-Aib-EGTFTSDVSSYLEEQAAREFIAWLVRGR-K([2-[2-[2-[[2-[2-[2-[[(4S)-4-Carboxy-4-(17-Carboxyheptadecanoylamino)Butanoyl]Amino]Ethoxy]Ethoxy]Acetyl]Amino]Ethoxy]Ethoxy]Acetyl])-GGGGEKCNTATCATQRLAEFLRHSSNNFGPILPPTNVGSNTP-amide [Comparator compound 0672, reference compound]”, the EC50 amounted to 606 pM in assay [1] (Table 4b, reference and comparator compounds, read-out: Human AmyR3 potency [EC50 (pM)]); 2.2 pM at human GLP-1 receptor (read-out: Human GLP-1 R potency [EC50 (pM)], Table 4b, reference and comparator compounds). The “Ability to agonise the amylin receptor, in words” value in assay [1] (Tables 4a-4c) was “impaired potency on the amylin receptor”. Moreover, the “Ability to agonise the GLP-1 receptor, in words” value on human GLP-1 receptor (Tables 4a-4c) is reported as “retained their potencies on the GLP-1 receptor”.

With `CC[C@H](C)[C@H](NC(=O)[C@H](Cc1ccccc1)NC(=O)[C@H](CCC(=O)O)NC(=O)[C@H](CCCCNC(=O)COCCOCCNC(=O)COCCOCCNC(=O)CC[C@H](NC(=O)CCCCCCCCCCCCCCC(=O)O)C(=O)O)NC(=O)[C@H](C)NC(=O)[C@H](C)NC(=O)[C@H](CCC(N)=O)NC(=O)CNC(=O)[C@H](CCC(=O)O)NC(=O)[C@H](CC(C)C)NC(=O)[C@H](Cc1ccc(O)cc1)NC(=O)[C@H](CO)NC(=O)[C@H](CO)NC(=O)[C@@H](NC(=O)[C@H](CC(=O)O)NC(=O)[C@H](CO)NC(=O)[C@@H](NC(=O)[C@H](Cc1ccccc1)NC(=O)[C@@H](NC(=O)CNC(=O)[C@H](CCC(=O)O)NC(=O)C(C)(C)NC(=O)[C@@H](N)Cc1c[nH]cn1)[C@@H](C)O)[C@@H](C)O)C(C)C)C(=O)N[C@@H](C)C(=O)N[C@@H](Cc1c[nH]c2ccccc12)C(=O)N[C@@H](CC(C)C)C(=O)N[C@H](C(=O)N[C@@H](CCCNC(=N)N)C(=O)NCC(=O)N[C@@H](CCCCNC(=O)COCCOCCNC(=O)COCCOCCNC(=O)CC[C@H](NC(=O)CCCCCCCCCCCCCCC(=O)O)C(=O)O)C(=O)NCC(=O)NCC(=O)NCC(=O)N[C@@H](CCC(=O)O)C(=O)N[C@@H](C)C(=O)N[C@@H](CO)C(=O)N[C@@H](CCC(=O)O)C(=O)N[C@@H](CC(C)C)C(=O)N[C@@H](CO)C(=O)N[C@H](C(=O)N[C@@H](C)C(=O)N[C@@H](C)C(=O)N[C@@H](CC(C)C)C(=O)NCC(=O)N[C@@H](CCCNC(=N)N)C(=O)N[C@@H](CC(C)C)C(=O)N[C@@H](CO)C(=O)N[C@@H](C)C(=O)N[C@@H](CCC(=O)O)C(=O)N[C@@H](CC(C)C)C(=O)N[C@@H](Cc1c[nH]cn1)C(=O)N[C@@H](CCC(=O)O)C(=O)N[C@@H](CC(C)C)C(=O)N[C@@H](C)C(=O)N[C@H](C(=O)N[C@@H](CC(C)C)C(=O)N1CCC[C@H]1C(=O)N[C@@H](CCCNC(=N)N)C(=O)N[C@H](C(=O)N[C@@H](CCC(=O)O)C(=O)N[C@H](C(=O)NCC(=O)N[C@@H](CO)C(=O)NCC(=O)N[C@@H](CO)C(=O)N1CCC[C@H]1C(N)=O)[C@@H](C)O)[C@@H](C)O)[C@@H](C)O)[C@@H](C)O)C(C)C` [Compound 0075], the EC50 in assay [1] (setting [2]) came out at 43.9 pM; at human GLP-1 receptor (setting [3]) it was 84.5 pM.

“H-H[Aib]EGTFTSDVSSYLEEQAAREFIAWLVRGK([AEEA-AEEA-γGlu-C18 diacid])GGEASELSTAALGRLSAELHELATLPRTETGSGSP-NH2 [Compound 0132]”: the figures for the EC50 (in assay [1] (setting [2]); on human GLP-1 receptor (setting [3])) were 34.9 pM and 3 pM, respectively.

For the compound “H-H[Aib]EGTFTSDVSSYLEGQAAREFIAWLVRGRK([AEEA-AEEA-γGlu-C18 diacid])GQEPGQAPEASELSTAALGRLSAELHELATLPRTETGSGSP-NH2 [Compound 0083]”, the concentration giving a half-maximal response (EC50) in assay [1] (setting [2]) was 46.2 pM; at human GLP-1 receptor (setting [3]), 5.4 pM.

With “HWEGTFTSDVSSYLEEK([AEEA-AEEA-γGlu-C18 diacid])AAREFIEWLVRGRGEASELSTAALGRLSAELHELATLPRTETGSGSP-NH2 [Compound 0271]”, the EC50 in assay [1] (setting [2]) was determined as 15.2 pM; at human GLP-1 receptor (setting [3]), 4.6 pM.

With “H-H[Aib]EGTFTSDVSSYLEEQAAREFIAWLVRGK([AEEA-AEEA-γGlu-C16 diacid])GGGGGEASELSTAALGRLSAELHELATLPRTETGK([AEEA-AEEA-γGlu-C16 diacid])GSP-NH2 [Compound 0285]”, the results for the EC50 (in assay [1] (setting [2]); on human GLP-1 receptor (setting [3])) were 78.9 pM and 19 pM, respectively.

The record behind these values is patent US20230331803A1, “CO-AGONISTS OF THE GLP-1 AND AMYLIN RECEPTORS” (priority 2020, published 2023).
